What was measured:
Assay in all cases: combination Emax (second highest fraction inhibited in the dose matrix, 72 h); higher = more inhibition; extreme values may be limits of the assay
[1] = system: MHH-ES-1 (Ewing's Sarcoma)
Method in brief: (§1)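 After 24 hours at 37°C and 5% CO2 in 1536-well plates, cells in DMEM/F12 or RPMI plus 10% FBS received two-drug dose matrices for 72 hours. Viability came from CellTiter-Glo 2.0 luminescence and was scaled as inhibition, anchored at 0 by vehicle wells and at 1 by blank wells. Combination Emax is taken as the second-highest inhibition in the matrix, and Bliss excess as the observed combination effect less EA + EB − EA·EB, with EA and EB the single-agent effects.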

[2] = system: EW-7 (Ewing's Sarcoma)
Method in brief: as §1

[3] = system: HCC70 (Breast Carcinoma)
Method in brief: as §1

[4] = system: SK-HEP-1 (Hepatocellular Carcinoma)
Method in brief: as §1

[5] = system: NCI-H441 (Lung Adenocarcinoma)
Method in brief: as §1

[6] = system: SW620 (Colorectal Carcinoma)
Method in brief: as §1

[7] = system: WM1552C (Melanoma)
Method in brief: as §1

[8] = system: HCC1395 (Breast Carcinoma)
Method in brief: as §1

[9] = system: JHU-022 (Oral Cavity Carcinoma)
Method in brief: as §1

[10] = system: CGTH-W-1 (Thyroid Gland Carcinoma)
Method in brief: as §1

[11] = system: 769-P (Kidney Carcinoma)
Method in brief: as §1

[12] = system: JHH-2 (Hepatocellular Carcinoma)
Method in brief: as §1

[13] = system: EB2 (Burkitt's Lymphoma)
Method in brief: as §1

[14] = system: LU-165 (Small Cell Lung Carcinoma)
Method in brief: as §1

[15] = system: NCI-H1651 (Lung Adenocarcinoma)
Method in brief: as §1

[16] = system: NCI-H1703 (Squamous Cell Lung Carcinoma)
Method in brief: as §1

[17] = system: IM-9 (Non-Cancerous)
Method in brief: as §1

[18] = system: A2780 (Ovarian Carcinoma)
Method in brief: as §1

[19] = system: NCI-H2087 (Lung Adenocarcinoma)
Method in brief: as §1

[20] = system: 22RV1 (Prostate Carcinoma)
Method in brief: as §1

Row | Compound | combination Emax [1] | combination Emax [2] | combination Emax [3] | combination Emax [4] | combination Emax [5] | combination Emax [6] | combination Emax [7] | combination Emax [8] | combination Emax [9] | combination Emax [10] | combination Emax [11] | combination Emax [12] | combination Emax [13] | combination Emax [14] | combination Emax [15] | combination Emax [16] | combination Emax [17] | combination Emax [18] | combination Emax [19] | combination Emax [20]
1 | CN(CCO)CC[C@H](CSc1ccccc1)Nc1ccc(S(=O)(=O)NC(=O)c2ccc(N3CCC([C@@H](O)c4ccccc4-c4ccc(Cl)cc4)CC3)cc2)cc1S(=O)(=O)C(F)(F)F [AZD4320] + CC(=O)O[C@H]1C(=O)[C@@]2(C)[C@H]([C@H](OC(=O)c3ccccc3)[C@]3(O)C[C@H](OC(=O)[C@H](O)[C@@H](NC(=O)c4ccccc4)c4ccccc4)C(C)=C1C3(C)C)[C@]1(OC(C)=O)CO[C@@H]1C[C@@H]2O [Paclitaxel] (first compound max 1 µM, 7x7, partner max 3 µM) | 1 | 1 | 0.875 | 0.952 | 0.735 | 1 | 0.941 | 0.838 | 0.846 | 0.881 | 0.958 | 0.93 | 0.802 | 0.88 | 0.981 | 0.976 | 1 | 0.946 | 0.976 | 0.845
2 | N#Cc1cnc(Nc2cc(NC[C@H]3CNCCO3)c(C(F)(F)F)cn2)cn1 [SRA737] + Nc1ccn([C@@H]2O[C@H](CO)[C@@H](O)C2(F)F)c(=O)n1 [Gemcitabine] (first compound max 10 µM, 7x7, partner max 0.3 µM) | 0.986 | 1 | 0.823 | 0.724 | 0.58 | 0.889 | 0.796 | 0.725 | 0.685 | 0.846 | 0.851 | 0.708 | 0.945 | 0.544 | 0.735 | 0.952 | 1 | 0.92 | 0.585 | 0.734
3 | Cc1nc(Nc2ncc(C(=O)Nc3c(C)cccc3Cl)s2)cc(N2CCN(CCO)CC2)n1 [Dasatinib] + CC(=O)Nc1cccc(-n2c(=O)n(C3CC3)c(=O)c3c(Nc4ccc(I)cc4F)n(C)c(=O)c(C)c32)c1 [Trametinib] (first compound max 2 µM, 7x7, partner max 1 µM) | 0.135 | 0.213 | 0.288 | 0.325 | 0.442 | 0.694 | 0.764 | 0.527 | 0.681 | 0.982 | 0.814 | 0.973 | 0.531 | 0.144 | 0.136 | 0.782 | 0.876 | 0.841 | 0.573 | 0.361
4 | CN(CCO)CC[C@H](CSc1ccccc1)Nc1ccc(S(=O)(=O)NC(=O)c2ccc(N3CCC([C@@H](O)c4ccccc4-c4ccc(Cl)cc4)CC3)cc2)cc1S(=O)(=O)C(F)(F)F [AZD4320] + Nc1ccn([C@@H]2O[C@H](CO)[C@@H](O)C2(F)F)c(=O)n1 [Gemcitabine] (first compound max 1 µM, 7x7, partner max 0.3 µM) | 0.964 | 1 | 0.507 | 0.936 | 0.765 | 0.871 | 0.817 | 0.211 | 0.787 | 0.887 | 0.903 | 0.525 | 0.932 | 0.828 | 0.543 | 0.915 | 1 | 0.893 | 0.881 | 0.748
5 | C[C@@H](c1ccc2nccn2c1)n1nnc2ncc(-c3cnn(C)c3)nc21 [Savolitinib] + Cc1c2c(nn1C)CSCc1cc(n(C)n1)CSc1cc(c3ccccc3c1)OCCCc1c(C(=O)O)n(C)c3c-2c(Cl)ccc13 [AZD5991] (first compound max 1 µM, 7x7, partner max 1 µM) | 0.38 | 0.133 | 0.844 | 0.237 | 0.221 | 0.167 | 0.554 | 0.478 | 0.132 | 0.173 | 0.158 | 0.142 | 0.208 | 0.213 | 0.183 | 0.852 | 0.573 | 0.499 | 0.204 | 0.34
6 | N#Cc1cnc(Nc2cc(NC[C@H]3CNCCO3)c(C(F)(F)F)cn2)cn1 [SRA737] + CCc1c2c(nc3ccc(O)cc13)-c1cc3c(c(=O)n1C2)COC(=O)[C@]3(O)CC [SN-38] (first compound max 10 µM, 7x7, partner max 0.3 µM) | 0.975 | 0.976 | 0.674 | 0.802 | 0.663 | 0.955 | 0.638 | 0.766 | 0.759 | 0.701 | 0.9 | 0.724 | 0.929 | 0.647 | 0.835 | 0.929 | 1 | 0.85 | 0.918 | 0.685
7 | Cc1cc2ncnn2cc1Nc1ncc2c(n1)n(C1CCOCC1)c(=O)n2C [AZD7648] + COc1cc([C@@H]2c3cc4c(cc3[C@@H](O[C@@H]3O[C@@H]5CO[C@@H](C)O[C@H]5[C@H](O)[C@H]3O)[C@H]3COC(=O)[C@H]23)OCO4)cc(OC)c1O [Etoposide] (first compound max 10 µM, 7x7, partner max 10 µM) | 0.931 | 0.882 | 0.373 | 0.653 | 0.449 | 0.95 | 0.507 | 0.432 | 0.577 | 0.603 | 0.75 | 0.605 | 0.953 | 0.495 | 0.738 | 0.892 | 1 | 0.889 | 0.633 | 0.666
8 | Cc1cc2ncnn2cc1Nc1ncc2c(n1)n(C1CCOCC1)c(=O)n2C [AZD7648] + CN(C)CCCOc1ccc(-c2ccc3ncc4c(c3c2)n(C2CCOCC2)c(=O)n4C)cn1 [AZD0156] (first compound max 10 µM, 7x7, partner max 1 µM) | 0.269 | 0.682 | 0.3 | 0.23 | 0.324 | 0.229 | 0.29 | 0.366 | 0.3 | 0.228 | 0.264 | 0.491 | 0.484 | 0.346 | 0.194 | 0.521 | 0.456 | 0.609 | 0.146 | 0.468
9 | CN(CCO)CC[C@H](CSc1ccccc1)Nc1ccc(S(=O)(=O)NC(=O)c2ccc(N3CCC([C@@H](O)c4ccccc4-c4ccc(Cl)cc4)CC3)cc2)cc1S(=O)(=O)C(F)(F)F [AZD4320] + Cn1cnc2c(F)c(Nc3ccc(Br)cc3Cl)c(C(=O)NOCCO)cc21 [Selumetinib] (first compound max 1 µM, 7x7, partner max 3 µM) | 0.951 | 0.968 | 0.7 | 0.603 | 0.522 | 0.942 | 0.558 | 0.281 | 0.629 | 0.342 | 0.36 | 0.452 | 0.377 | 0.748 | 0.39 | 0.298 | 1 | 0.512 | 0.908 | 0.453
10 | N#Cc1cnc(Nc2cc(NC[C@H]3CNCCO3)c(C(F)(F)F)cn2)cn1 [SRA737] + C=CCn1c(=O)c2cnc(Nc3ccc(N4CCN(C)CC4)cc3)nc2n1-c1cccc(C(C)(C)O)n1 [AZD1775] (first compound max 10 µM, partner max 1 µM) | 0.667 | 0.954 | 0.848 | 0.23 | 0.446 | 0.587 | 0.751 | 0.753 | 0.528 | 0.432 | 0.9 | 0.652 | 0.911 | 0.598 | 0.713 | 0.972 | 1 | 0.966 | 0.645 | 0.516
11 | N#Cc1cnc(Nc2cc(NC[C@H]3CNCCO3)c(C(F)(F)F)cn2)cn1 [SRA737] + O=c1[nH]cc(F)c(=O)[nH]1 [5-Fluorouracil] (first compound max 10 µM, 7x7, partner max 20 µM) | 0.697 | 0.814 | 0.743 | 0.416 | 0.381 | 0.422 | 0.728 | 0.653 | 0.513 | 0.646 | 0.756 | 0.623 | 0.88 | 0.413 | 0.479 | 0.885 | 1 | 0.72 | 0.309 | 0.616
12 | COc1cc2ncnc(Nc3ccc(F)c(Cl)c3)c2cc1OCCCN1CCOCC1 [Gefitinib] + CC(C)n1c(=O)n(C)c2cnc3cc(F)c(-c4ccc(OCCCN5CCCCC5)nc4)cc3c21 [AZD1390] (first compound max 10 µM, 7x7, partner max 0.3 µM) | 0.182 | 0.328 | 0.162 | 0.369 | 0.271 | 0.0744 | 0.12 | 0.192 | 0.626 | 0 | 0.442 | 0.304 | 0.38 | 0.173 | 0.112 | 0.305 | 0.424 | 0.485 | 0.131 | 0.148
